What was measured:
SMARCA2 = SMARCA2 (Homo sapiens, UniProt P51531); assay: HiBit assay in engineered HT1080 CRISPR knock-in cell, 6 hrs (B series), SMARCA2; type: cell-based; conditions: 6 hrs incubation; for DC50: read-out: SMARC A2 HT1080 HiBit DC50; for Dmax: HT-1080, HT1080 CRISPR knock-in cells, read-out: SMARC A2 HT1080 HiBit Dmax (%)
Method in brief: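 Remaining SMARCA2 protein measured as HiBiT luminescence after cell lysis with LgBiT plus lytic substrate. Engineered HT1080 knock-in cells (2000/well) were first treated 6 h at 37 °C with compound at a final 0.1% DMSO.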

SMARCA4 = SMARCA4 (Homo sapiens, UniProt P51532); assay: HiBit assay in engineered HT1080 CRISPR knock-in cell, 6 hrs (B series), SMARCA4; type: cell-based; conditions: 6 hrs incubation; for DC50: read-out: SMARC A4 HT1080 HiBit DC50; for Dmax: HT-1080, HT1080 CRISPR knock-in cells, read-out: SMARC A4 HT1080 HiBit Dmax(%)
SMARCA4, sequence (P51532 whole entry): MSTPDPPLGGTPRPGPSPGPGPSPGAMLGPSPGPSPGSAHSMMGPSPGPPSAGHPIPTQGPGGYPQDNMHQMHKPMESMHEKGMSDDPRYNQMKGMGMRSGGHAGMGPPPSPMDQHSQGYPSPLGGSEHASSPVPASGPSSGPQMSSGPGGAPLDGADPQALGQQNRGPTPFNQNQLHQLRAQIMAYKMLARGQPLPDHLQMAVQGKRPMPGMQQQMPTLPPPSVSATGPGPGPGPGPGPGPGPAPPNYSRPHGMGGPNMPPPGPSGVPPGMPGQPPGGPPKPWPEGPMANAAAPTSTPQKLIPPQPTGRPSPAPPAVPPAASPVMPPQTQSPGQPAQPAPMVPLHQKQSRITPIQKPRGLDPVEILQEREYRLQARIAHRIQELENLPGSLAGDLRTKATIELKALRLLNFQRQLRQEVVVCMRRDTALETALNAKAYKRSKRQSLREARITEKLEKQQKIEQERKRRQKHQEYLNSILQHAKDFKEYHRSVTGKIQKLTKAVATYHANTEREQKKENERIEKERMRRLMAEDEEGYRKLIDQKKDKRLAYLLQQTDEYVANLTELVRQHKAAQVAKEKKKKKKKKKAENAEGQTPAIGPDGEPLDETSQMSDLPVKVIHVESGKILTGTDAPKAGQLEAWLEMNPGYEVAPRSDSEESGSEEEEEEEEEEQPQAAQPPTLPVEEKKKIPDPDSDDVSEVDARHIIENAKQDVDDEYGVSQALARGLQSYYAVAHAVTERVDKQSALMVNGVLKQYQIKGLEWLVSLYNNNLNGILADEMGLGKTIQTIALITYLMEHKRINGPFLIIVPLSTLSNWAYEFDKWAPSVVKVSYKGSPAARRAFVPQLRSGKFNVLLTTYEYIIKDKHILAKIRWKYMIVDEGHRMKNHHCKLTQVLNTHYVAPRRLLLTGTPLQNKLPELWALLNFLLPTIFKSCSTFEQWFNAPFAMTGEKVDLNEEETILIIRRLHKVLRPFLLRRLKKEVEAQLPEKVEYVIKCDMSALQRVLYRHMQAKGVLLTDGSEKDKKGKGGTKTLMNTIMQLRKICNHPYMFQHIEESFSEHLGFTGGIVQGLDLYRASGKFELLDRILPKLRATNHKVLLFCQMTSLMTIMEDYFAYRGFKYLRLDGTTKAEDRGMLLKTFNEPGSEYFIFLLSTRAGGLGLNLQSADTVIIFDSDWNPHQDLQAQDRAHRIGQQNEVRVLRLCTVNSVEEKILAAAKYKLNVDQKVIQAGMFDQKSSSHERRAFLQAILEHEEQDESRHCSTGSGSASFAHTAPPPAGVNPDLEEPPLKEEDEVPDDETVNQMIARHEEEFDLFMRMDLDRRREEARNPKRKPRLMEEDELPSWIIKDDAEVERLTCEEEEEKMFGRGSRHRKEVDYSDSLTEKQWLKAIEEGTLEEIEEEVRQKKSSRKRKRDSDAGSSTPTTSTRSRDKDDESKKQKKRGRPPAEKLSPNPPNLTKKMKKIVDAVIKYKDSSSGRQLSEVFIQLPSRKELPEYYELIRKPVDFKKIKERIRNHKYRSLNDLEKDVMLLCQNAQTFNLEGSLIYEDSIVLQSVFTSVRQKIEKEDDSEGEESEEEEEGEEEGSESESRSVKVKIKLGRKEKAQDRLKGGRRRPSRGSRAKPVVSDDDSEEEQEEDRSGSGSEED
Method in brief: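 HT1080 CRISPR knock-in cells carrying the HiBiT tag were seeded onto compounds (final DMSO 0.1%) and incubated 6 hrs at 37° C, 5% CO2. Remaining tagged protein was detected by lytic HiBiT luminescence after adding LgBiT protein and substrate, with LgBiT-free wells serving as negative control.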

SMARCA2, sequence (P51531 whole entry): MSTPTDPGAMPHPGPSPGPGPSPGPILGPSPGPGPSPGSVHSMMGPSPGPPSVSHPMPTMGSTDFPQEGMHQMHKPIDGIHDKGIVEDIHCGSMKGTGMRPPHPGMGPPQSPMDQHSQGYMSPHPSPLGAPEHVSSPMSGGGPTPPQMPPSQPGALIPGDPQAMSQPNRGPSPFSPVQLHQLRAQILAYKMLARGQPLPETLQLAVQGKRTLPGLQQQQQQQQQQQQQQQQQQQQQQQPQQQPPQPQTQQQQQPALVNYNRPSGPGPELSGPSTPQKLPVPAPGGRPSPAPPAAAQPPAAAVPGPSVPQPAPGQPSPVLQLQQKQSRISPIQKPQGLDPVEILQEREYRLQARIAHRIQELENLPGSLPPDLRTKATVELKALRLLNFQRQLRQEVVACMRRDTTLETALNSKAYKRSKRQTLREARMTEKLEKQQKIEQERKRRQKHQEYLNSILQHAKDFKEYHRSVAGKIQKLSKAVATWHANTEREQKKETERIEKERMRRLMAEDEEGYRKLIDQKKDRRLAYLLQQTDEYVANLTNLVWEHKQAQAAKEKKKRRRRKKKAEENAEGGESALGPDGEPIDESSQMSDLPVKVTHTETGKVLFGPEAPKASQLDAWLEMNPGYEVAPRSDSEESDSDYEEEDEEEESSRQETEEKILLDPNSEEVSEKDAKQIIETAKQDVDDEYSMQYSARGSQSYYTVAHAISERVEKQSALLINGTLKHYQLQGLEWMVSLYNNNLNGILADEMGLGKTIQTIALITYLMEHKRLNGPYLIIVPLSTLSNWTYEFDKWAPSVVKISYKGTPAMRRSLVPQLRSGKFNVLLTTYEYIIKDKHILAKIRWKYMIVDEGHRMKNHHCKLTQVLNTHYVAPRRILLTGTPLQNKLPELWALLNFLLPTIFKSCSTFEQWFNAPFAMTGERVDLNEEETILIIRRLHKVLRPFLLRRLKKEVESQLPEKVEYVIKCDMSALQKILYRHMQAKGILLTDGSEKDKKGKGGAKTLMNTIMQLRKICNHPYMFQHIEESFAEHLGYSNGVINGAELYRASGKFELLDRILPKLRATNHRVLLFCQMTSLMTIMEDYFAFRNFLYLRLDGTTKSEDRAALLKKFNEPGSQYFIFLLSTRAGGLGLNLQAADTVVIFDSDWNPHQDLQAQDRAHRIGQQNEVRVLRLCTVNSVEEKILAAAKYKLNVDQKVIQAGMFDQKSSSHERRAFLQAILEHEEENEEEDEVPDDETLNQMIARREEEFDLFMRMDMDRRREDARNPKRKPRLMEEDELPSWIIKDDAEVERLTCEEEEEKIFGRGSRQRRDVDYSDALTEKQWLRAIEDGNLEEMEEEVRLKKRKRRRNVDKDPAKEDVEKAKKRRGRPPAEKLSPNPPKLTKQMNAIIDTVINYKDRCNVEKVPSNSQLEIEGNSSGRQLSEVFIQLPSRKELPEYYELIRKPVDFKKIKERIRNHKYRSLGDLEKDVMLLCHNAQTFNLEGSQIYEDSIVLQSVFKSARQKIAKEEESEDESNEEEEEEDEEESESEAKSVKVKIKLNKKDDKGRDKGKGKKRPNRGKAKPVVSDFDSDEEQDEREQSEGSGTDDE

Row | SMILES | DC50 (SMARCA2; HT1080 CRISPR knock-in cells) | Dmax (SMARCA2) | DC50 (SMARCA4; HT1080 CRISPR knock-in cells) | Dmax (SMARCA4) | SMARC A2 HT1080 HiBit Dmax (%) (SMARCA2; HT1080 CRISPR knock-in cells) | SMARC A4 HT1080 HiBit Dmax(%) (SMARCA4; HT1080 CRISPR knock-in cells)
1 | Cc1ncsc1-c1ccc([C@H](CN2CCOCC2)NC(=O)[C@@H]2C[C@@H](O)CN2C(=O)[C@@H](n2cc([C@H]3CC[C@H](S(=O)(=O)N4CCC(c5ccc6c(c5)-n5c(nc(=O)c7c(Cl)cccc75)C65CCCCC5)CC4)CC3)nn2)C(C)(C)C)cc1 [Compound B118, (2S,4R)-1-((S)-2-(4-((1r,4S)-4-((4-(4′-chloro-5′-oxo-5′H-spiro[cyclohexane-1,7′-indolo[1,2-a]quinazolin]-10′-yl)piperidin-1-yl)sulfonyl)cyclohexyl)-1H-1,2,3-triazol-1-yl)-3,3-dimethylbutanoyl)-4-hydroxy-N-((R)-1-(4-(4-methylthiazol-5-yl)phenyl)-2-morpholinoethyl)pyrrolidine-2-carboxamide] | < 0.1 µM | 70 to 90% | 0.501 to 1 µM | 50 to 69% |  | 
2 | Cc1ncsc1-c1ccc([C@H](CN2CCOCC2)NC(=O)[C@@H]2C[C@@H](O)CN2C(=O)C(c2cc(N3CCC(CN4CCC(c5ccc6c(c5)-n5c(nc(=O)c7c(Cl)cccc75)C6(C)C)CC4)CC3)no2)C(C)C)cc1 (stereo partly drawn) [Compound B115, (2S,4R)-1-(2-(3-(4-((4-(4-chloro-7,7-dimethyl-5-oxo-5,7-dihydroindolo[1,2-a]quinazolin-10-yl)piperidin-1-yl)methyl)piperidin-1-yl)isoxazol-5-yl)-3-methylbutanoyl)-4-hydroxy-N-((R)-1-(4-(4-methylthiazol-5-yl)phenyl)-2-morpholinoethyl)pyrrolidine-2-carboxamide] | < 0.1 µM | > 90% | < 0.1 µM | 70 to 90% |  | 
3 | Cc1ncsc1-c1ccc(C2(NC(=O)[C@@H]3C[C@@H](O)CN3C(=O)[C@@H](n3cc([C@H]4CC[C@H](CN5CCC(c6ccc7c(c6)-n6c(nc(=O)c8c(Cl)cccc86)C7(C)C)CC5)CC4)nn3)C(C)(C)C)CN(C)C2)cc1 [Compound B124, (2S,4R)-1-((S)-2-(4-((1r,4S)-4-((4-(4-chloro-7,7-dimethyl-5-oxo-5,7-dihydroindolo[1,2-a]quinazolin-10-yl)piperidin-1-yl)methyl)cyclohexyl)-1H-1,2,3-triazol-1-yl)-3,3-dimethylbutanoyl)-4-hydroxy-N-(1-methyl-3-(4-(4-methylthiazol-5-yl)phenyl)azetidin-3-yl)pyrrolidine-2-carboxamide] | < 0.1 µM | 70 to 90% | 0.1 to 0.5 µM | < 50% |  | 
4 | Cc1ncsc1-c1ccc([C@H](C)NC(=O)[C@@H]2C[C@@H](O)CN2C(=O)[C@@H](n2cc(C3CC4(C3)CC(N3CCC(c5ccc6c(c5)-n5c(nc(=O)c7c(Cl)cccc75)C6(C)C)CC3)C4)nn2)C(C)(C)C)cc1 (stereo partly drawn) [Compound B86, (2S,4R)-1-((S)-2-(4-(6-(4-(4-chloro-7,7-dimethyl-5-oxo-5,7-dihydroindolo[1,2-a]quinazolin-10-yl)piperidin-1-yl)spiro[3.3]heptan-2-yl)-1H-1,2,3-triazol-1-yl)-3,3-dimethylbutanoyl)-4-hydroxy-N—((S)-1-(4-(4-methylthiazol-5-yl)phenyl)ethyl)pyrrolidine-2-carboxamide] | < 0.1 µM | > 90% | < 0.1 µM | 70 to 90% |  | 
5 | CC#Cc1ccc([C@H](C)NC(=O)[C@@H]2C[C@@H](O)CN2C(=O)[C@H](C(C)C)n2cc([C@H]3CC[C@H](CN4CCC(c5ccc6c(c5)-n5c(nc(=O)c7c(Cl)cccc75)C6(C)C)CC4)CC3)nn2)cc1 [Compound B131, (2S,4R)-1-((S)-2-(4-((1r,4S)-4-((4-(4-chloro-7,7-dimethyl-5-oxo-5,7-dihydroindolo[1,2-a]quinazolin-10-yl)piperidin-1-yl)methyl)cyclohexyl)-1H-1,2,3-triazol-1-yl)-3-methylbutanoyl)-4-hydroxy-N-((S)-1-(4-(prop-1-yn-1-yl)phenyl)ethyl)pyrrolidine-2-carboxamide] | < 0.1 µM | > 90% | < 0.1 µM | 50 to 69% |  | 
6 | C#Cc1ccc([C@H](CN2CCOCC2)NC(=O)[C@@H]2C[C@@H](O)CN2C(=O)[C@@H](n2cc([C@H]3CC[C@H](CN4CCC(c5ccc6c(c5)-n5c(nc(=O)c7c(Cl)cccc75)C6(C)C)CC4)CC3)nn2)C(C)(C)C)cc1 [Compound B102, (2S,4R)-1-((S)-2-(4-((1r,4S)-4-((4-(4-chloro-7,7-dimethyl-5-oxo-5,7-dihydroindolo[1,2-a]quinazolin-10-yl)piperidin-1-yl)methyl)cyclohexyl)-1H-1,2,3-triazol-1-yl)-3,3-dimethylbutanoyl)-N—((R)-1-(4-ethynylphenyl)-2-morpholinoethyl)-4-hydroxypyrrolidine-2-carboxamide] | < 0.1 µM | > 90% | < 0.1 µM | 70 to 90% |  | 
7 | Cc1ncsc1-c1ccc([C@H](C)NC(=O)[C@@H]2C[C@@H](O)CN2C(=O)[C@@H](c2cc(OCCCN3CCC(c4ccc5c(c4)C(C)(C)c4nc(=O)c6c(Cl)cccc6n4-5)CC3)no2)C(C)C)cc1 [Compound B11, (2S,4R)-1-((R)-2-(3-(3-(4-(4-chloro-7,7-dimethyl-5-oxo-5,7-dihydroindolo[1,2-a]quinazolin-9-yl)piperidin-1-yl)propoxy)isoxazol-5-yl)-3-methylbutanoyl)-4-hydroxy-N-((S)-1-(4-(4-methylthiazol-5-yl)phenyl)ethyl)pyrrolidine-2-carboxamide] | < 0.1 µM | > 90% | < 0.1 µM | > 90% |  | 
8 | Cc1ncsc1-c1ccc([C@H](C)NC(=O)[C@@H]2C[C@@H](O)CN2C(=O)[C@H](C(C)C)n2cc(C3CCC(c4cccc5c4C(C)(C)c4nc(=O)c6c(Cl)cccc6n4-5)CC3)nn2)cc1 (stereo partly drawn) [Compound B161, (2S,4R)-1-((S)-2-(4-(4-(4-chloro-7,7-dimethyl-5-oxo-5,7-dihydroindolo[1,2-a]quinazolin-8-yl)cyclohexyl)-1H-1,2,3-triazol-1-yl)-3-methylbutanoyl)-4-hydroxy-N-((S)-1-(4-(4-methylthiazol-5-yl)phenyl)ethyl)pyrrolidine-2-carboxamide] | < 0.1 µM |  | < 0.1 µM |  | A (A (>90% degradation)) | C (C (50-69% degradation))
9 | Cc1ncsc1-c1ccc([C@H](C)NC(=O)[C@@H]2C[C@@H](O)CN2C(=O)[C@@H](NC(=O)CCN2CCC(c3ccc4c(c3)-n3c(nc(=O)c5c(Cl)cccc53)C4(C)C)CC2)C(C)(C)C)cc1 [Compound B43, (2S,4R)-1-((S)-2-(3-(4-(4-chloro-7,7-dimethyl-5-oxo-5,7-dihydroindolo[1,2-a]quinazolin-10-yl)piperidin-1-yl)propanamido)-3,3-dimethylbutanoyl)-4-hydroxy-N—((S)-1-(4-(4-methylthiazol-5-yl)phenyl)ethyl)pyrrolidine-2-carboxamide] | 0.1 to 0.5 µM | 50 to 69% | > 1 µM | < 50% |  | 
10 | Cc1ncsc1-c1ccc([C@H](C)NC(=O)[C@@H]2C[C@@H](O)CN2C(=O)[C@@H](c2cc(N3CCC(CN4CCN(c5ccc6c(c5)-n5c(nc(=O)c7c(Cl)cccc75)C6(C)C)CC4)CC3)no2)C(C)C)cc1 [Compound B111, (2S,4R)-1-((R)-2-(3-(4-((4-(4-chloro-7,7-dimethyl-5-oxo-5,7-dihydroindolo[1,2-a]quinazolin-10-yl)piperazin-1-yl)methyl)piperidin-1-yl)isoxazol-5-yl)-3-methylbutanoyl)-4-hydroxy-N-((S)-1-(4-(4-methylthiazol-5-yl)phenyl)ethyl)pyrrolidine-2-carboxamide] | < 0.1 µM | > 90% | < 0.1 µM | 50 to 69% |  | 
11 | C[C@H](NC(=O)[C@@H]1C[C@@H](O)CN1C(=O)[C@@H](NC(=O)[C@H]1CC[C@H](CN2CCC(c3ccc4c(c3)C(C)(C)c3nc(=O)c5c(Cl)cccc5n3-4)CC2)CC1)C(C)(C)C)c1ccc(-c2ncnn2C)cc1 [Compound B88, (2S,4R)-1-((S)-2-((11,4S)-4-((4-(4-chloro-7,7-dimethyl-5-oxo-5,7-dihydroindolo[1,2-a]quinazolin-9-yl)piperidin-1-yl)methyl)cyclohexane-1-carboxamido)-3,3-dimethylbutanoyl)-4-hydroxy-N-((S)-1-(4-(1-methyl-1H-1,2,4-triazol-5-yl)phenyl)ethyl)pyrrolidine-2-carboxamide] | > 1 µM | < 50% | > 1 µM | < 50% |  | 
12 | Cc1ncsc1-c1ccc([C@H](CCCCCn2cc(-c3ccc4c(c3)C(C)(C)c3nc(=O)c5c(Cl)cccc5n3-4)cn2)NC(=O)[C@@H]2C[C@@H](O)CN2C(=O)[C@@H](NC(=O)C2(F)CC2)C(C)(C)C)cc1 [Compound B56, (2S,4R)—N—((S)-6-(4-(4-chloro-7,7-dimethyl-5-oxo-5,7-dihydroindolo[1,2-a]quinazolin-9-yl)-1H-pyrazol-1-yl)-1-(4-(4-methylthiazol-5-yl)phenyl)hexyl)-1-((S)-2-(1-fluorocyclopropane-1-carboxamido)-3,3-dimethylbutanoyl)-4-hydroxypyrrolidine-2-carboxamide] | 0.1 to 0.5 µM | < 50% | > 1 µM | < 50% |  | 
